Test results as given in ChEMBL document CHEMBL1139019, “Tricyclic azepine derivatives: pyrimido[4,5-b]-1,4-benzoxazepines as a novel class of epidermal growth factor receptor kinase inhibitors” (Bioorg Med Chem Lett, 2006).

What was measured:
[1] = target: T1, Epidermal growth factor receptor (Homo sapiens, UniProt P00533); test: Inhibition of EGFR autophosphorylation in DiFi cells
[2] = target: T1, Epidermal growth factor receptor

T1 sequence (P00533 whole entry): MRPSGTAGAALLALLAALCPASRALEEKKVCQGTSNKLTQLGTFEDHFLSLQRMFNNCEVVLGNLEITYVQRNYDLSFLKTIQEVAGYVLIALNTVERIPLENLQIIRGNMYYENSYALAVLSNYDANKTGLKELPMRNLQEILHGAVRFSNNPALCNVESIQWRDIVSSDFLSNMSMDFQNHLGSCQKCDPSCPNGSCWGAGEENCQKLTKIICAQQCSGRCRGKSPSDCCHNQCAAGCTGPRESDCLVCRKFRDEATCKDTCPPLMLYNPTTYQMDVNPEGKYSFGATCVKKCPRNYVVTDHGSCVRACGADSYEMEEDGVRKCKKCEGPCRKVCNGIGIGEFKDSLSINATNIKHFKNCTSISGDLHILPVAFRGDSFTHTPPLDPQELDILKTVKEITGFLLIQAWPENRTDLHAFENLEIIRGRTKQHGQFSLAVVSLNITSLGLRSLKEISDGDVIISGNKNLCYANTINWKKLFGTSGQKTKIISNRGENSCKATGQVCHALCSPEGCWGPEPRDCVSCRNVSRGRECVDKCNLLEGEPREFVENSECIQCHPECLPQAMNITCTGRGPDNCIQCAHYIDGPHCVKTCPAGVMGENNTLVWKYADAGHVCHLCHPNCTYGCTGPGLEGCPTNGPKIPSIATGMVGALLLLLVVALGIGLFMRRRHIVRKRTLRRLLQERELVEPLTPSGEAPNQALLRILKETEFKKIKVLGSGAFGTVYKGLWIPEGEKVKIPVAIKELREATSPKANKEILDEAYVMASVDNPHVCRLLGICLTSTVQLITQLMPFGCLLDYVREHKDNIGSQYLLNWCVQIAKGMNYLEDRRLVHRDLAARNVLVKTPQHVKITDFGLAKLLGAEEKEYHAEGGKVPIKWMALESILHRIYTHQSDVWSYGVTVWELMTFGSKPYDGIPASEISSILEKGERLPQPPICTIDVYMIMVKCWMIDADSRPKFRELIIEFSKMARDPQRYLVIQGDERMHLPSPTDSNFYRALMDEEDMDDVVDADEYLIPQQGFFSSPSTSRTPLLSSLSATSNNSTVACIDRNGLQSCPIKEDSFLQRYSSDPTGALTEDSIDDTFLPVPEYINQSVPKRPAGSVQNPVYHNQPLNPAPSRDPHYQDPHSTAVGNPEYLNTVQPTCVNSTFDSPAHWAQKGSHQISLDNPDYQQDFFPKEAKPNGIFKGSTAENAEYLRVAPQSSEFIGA

| SMILES | IC50 [1] | IC50 [2] |
| --- | --- | --- |
| Fc1ccc2c(c1)CNc1c(Nc3cccc(-c4ccccc4)c3)ncnc1O2 | 9.9 µM | 2 µM |
| Fc1ccc2c(c1)CNc1c(NCc3ccccc3)ncnc1O2 | > 30 µM | 8.9 µM |
| Fc1ccc2c(c1)CNc1c(Nc3ccc(Cl)cc3)ncnc1O2 |  | > 10 µM |
| CS(=O)(=O)Nc1ccc2c(c1)CNc1c(Nc3ccc(F)c(Cl)c3)ncnc1O2 |  | > 10 µM |
| C=CC(=O)Nc1ccc2c(c1)CNc1c(Nc3cccc(Br)c3)ncnc1O2 | 5.4 µM | 5.7 µM |
| Fc1ccc2c(c1)CNc1c(Nc3ccccc3)ncnc1O2 |  | 7 µM |
| Fc1ccc2c(c1)CNc1c(Nc3cccc(Br)c3)ncnc1O2 | 6.9 µM | 1.5 µM |
| C=CC(=O)Nc1ccc2c(c1)CNc1c(Nc3ccc(F)c(Cl)c3)ncnc1O2 | 8.9 µM | 4.9 µM |
| CS(=O)(=O)Nc1ccc2c(c1)CNc1c(Nc3cccc(Br)c3)ncnc1O2 | 7 µM | 4.1 µM |
| COc1ccc2c(c1)CNc1c(Nc3ccccc3)ncnc1O2 |  | 7.5 µM |
| Nc1ccc2c(c1)CNc1c(Nc3ccc(F)c(Cl)c3)ncnc1O2 | 9.1 µM | 3.7 µM |
| COc1ccc2c(c1)Oc1ncnc(Nc3ccc(F)c(Cl)c3)c1NC2 | 8.9 µM | 1 µM |
| Fc1ccc2c(c1)CNc1c(Nc3ccc(F)c(Cl)c3)ncnc1O2 | 7.2 µM | 1 µM |
| COc1cc2c(cc1OC)Oc1ncnc(Nc3ccc(F)c(Cl)c3)c1NC2 | 0.69 µM | 1.2 µM |
| Clc1ccc2c(c1)CNc1c(Nc3cccc(Br)c3)ncnc1O2 | > 30 µM | 3.4 µM |

More lines, now with the values ahead:

| IC50 [1] | IC50 [2] | SMILES |
| --- | --- | --- |
| > 30 µM | 6.3 µM | COc1cc(OC)c2c(c1)Oc1ncnc(Nc3cccc(Br)c3)c1NC2 |
|  | > 10 µM | FC(F)(F)Oc1ccc2c(c1)CNc1c(Nc3cccc(Br)c3)ncnc1O2 |
| 8.4 µM | 2 µM | Fc1ccc(Nc2ncnc3c2NCc2cc(Br)ccc2O3)cc1Cl |
| 9.8 µM | > 10 µM | COc1ccc2c(c1)CNc1c(Nc3cccc(-c4ccccc4)c3)ncnc1O2 |
| > 30 µM | 1.7 µM | Nc1ccc2c(c1)CNc1c(Nc3cccc(Br)c3)ncnc1O2 |
| 8.5 µM | 2 µM | COc1ccc2c(c1)CNc1c(NCc3ccccc3)ncnc1O2 |
| > 30 µM | 1 µM | O=C(O)c1ccc2c(c1)CNc1c(Nc3cccc(Br)c3)ncnc1O2 |
| 1.9 µM | 3 µM | COc1ccc2c(c1)Oc1ncnc(Nc3cccc(Br)c3)c1NC2 |
| 7.2 µM | 1 µM | Brc1cccc(Nc2ncnc3c2NCc2cc(Br)ccc2O3)c1 |
| 0.47 µM | 0.34 µM | COc1cc2c(cc1OC)Oc1ncnc(Nc3cccc(Br)c3)c1NC2 |
| 2.4 µM | 0.9 µM | COc1ccc2c(c1)CNc1c(Nc3ccc(F)c(Cl)c3)ncnc1O2 |
|  | 10 µM | Brc1ccc2c(c1)CNc1c(Nc3ccccc3)ncnc1O2 |
| 4.3 µM | 1 µM | Fc1ccc(Nc2ncnc3c2NCc2cc(Cl)ccc2O3)cc1Cl |
| > 30 µM | 4.4 µM | O=C(O)c1ccc2c(c1)CNc1c(Nc3ccc(F)c(Cl)c3)ncnc1O2 |
|  | 5.8 µM | COc1ccc2c(c1)CNc1c(Nc3ccc(Cl)cc3)ncnc1O2 |
|  | > 10 µM | COc1cccc2c1CNc1c(Nc3cccc(Br)c3)ncnc1O2 |
| 1 µM | 3.1 µM | COc1ccc2c(c1)CNc1c(Nc3cccc(Br)c3)ncnc1O2 |
| 2.7 µM | 1.1 µM | Fc1ccc(Nc2ncnc3c2NCc2ccccc2O3)cc1Cl |
